Data taken from patent US20250255867A1 (Kadmon Corporation, LLC, priority 2022, published 2025).

Test system: patients with cGVHD
Test: Example 1: pulmonary function (percent predicted FEV1, FVC, DLco, TLC, RV) change from baseline
Type: in vivo, human
Protocol: Change From Baseline in Percent Predicted Forced Expiratory Volume in 1 Second (FEV1) at Each Specified Time Points. FEV1 was the volume of air exhaled from the lungs in the first second of a forced expiration as measured by spirometer. Baseline value was defined as valid and last non-missing value obtained within 28 days prior to participant receiving first study medication. EOT visit was performed within 3 days after the participant's last dose of study drug. […] Analysis was performed on mITT population. Here, ‘number analyzed’=participants with available data for each specified category. Here, ‘0’ in the number analyzed field signifies that none of the participants were available for the analysis at the specified time points.
Change From Baseline in Percent Predicted Forced Vital Capacity (FVC) at Each Specified Time Points. FVC was the total amount of air (in liters) exhaled from the lungs during the lung function test measured by spirometer which assessed the change in lung function related to the disease status. Baseline value was defined as valid and last non-missing value obtained within 28 days prior to participant receiving first study medication. EOT visit was performed within 3 days after the participant's last dose of study drug. […] Analysis was performed on mITT population. Here, ‘number analyzed’=participants with available data for each specified category. Here, ‘0’ in the number analyzed field signifies that none of the participants were available for the analysis at the specified time points.
Change From Baseline in Percent Predicted Hemoglobin (HGB) Corrected Diffusing Capacity of Lung for Carbon Monoxide (DLco) at Each Specified Time Points. DLco is a measurement of the ability of the lungs to transfer gases from the air to the blood. Change from baseline in diffusing capacity of the lung for carbon monoxide (percent predicted hemoglobin level corrected) was reported for this measure. Baseline value was defined as valid and last non-missing value obtained within 28 days prior to participant receiving first study medication. EOT visit was performed within 3 days after the participant's last dose of study drug. […] Analysis was performed on mITT population. Here, ‘number analyzed’=participants with available data for each specified category. Here, ‘0’ in the number analyzed field signifies that none of the participants were available for the analysis at the specified time points.
Change From Baseline in Percent Predicted Total Lung Capacity (TLC) at Each Specified Time Points. TLC is the volume of air in the lungs upon the maximum effort of inspiration. Baseline value was defined as valid and last non-missing value obtained within 28 days prior to participant receiving first study medication. EOT visit was performed within 3 days after the participant's last dose of study drug. […] Analysis was performed on mITT population. Here, ‘number analyzed’=participants with available data for each specified category.

SMILES: CC(C)NC(=O)COc1cccc(-c2nc(Nc3ccc4[nH]ncc4c3)c3ccccc3n2)c1 [Belumosudil, 2-{3-[4-(1H-indazol-5-ylamino)-2-quinazolinyl]phenoxy}-N-(propan-2-yl) acetamide]
- Change From Baseline in Percent Predicted Residual Volume (RV), Mean (Standard Deviation) (Cohort 1: 200 mg QD, Cycle 3, Day 1, n=14): 0.2 (22.2) percent predicted RV
- Change From Baseline in Percent Predicted Residual Volume (RV), Mean (Standard Deviation) (Cohort 1: 200 mg QD, Cycle 5, Day 1, n=13): 5.2 (24.5) percent predicted RV
- Change From Baseline in Percent Predicted Residual Volume (RV), Mean (Standard Deviation) (Cohort 1: 200 mg QD, Cycle 7, Day 1, n=11): 4.9 (29.1) percent predicted RV
- Change From Baseline in Percent Predicted Residual Volume (RV), Mean (Standard Deviation) (Cohort 1: 200 mg QD, Cycle 9, Day 1, n=9): 6.4 (27.4) percent predicted RV
- Change From Baseline in Percent Predicted Residual Volume (RV), Mean (Standard Deviation) (Cohort 1: 200 mg QD, Cycle 11, Day 1, n=7): 22.1 (29.6) percent predicted RV
- Change From Baseline in Percent Predicted Residual Volume (RV), Mean (Standard Deviation) (Cohort 1: 200 mg QD, Cycle 12, Day 1, n=1): −28.0 (—) percent predicted RV
- Change From Baseline in Percent Predicted Residual Volume (RV), Mean (Standard Deviation) (Cohort 1: 200 mg QD, Cycle 13, Day 1, n=7): 20.3 (19.9) percent predicted RV
- Change From Baseline in Percent Predicted Residual Volume (RV), Mean (Standard Deviation) (Cohort 1: 200 mg QD, Cycle 14, Day 1, n=1): 78.0 (—) percent predicted RV
- Change From Baseline in Percent Predicted Residual Volume (RV), Mean (Standard Deviation) (Cohort 1: 200 mg QD, Cycle 15, Day 1, n=6): 20.3 (27.4) percent predicted RV
- Change From Baseline in Percent Predicted Residual Volume (RV), Mean (Standard Deviation) (Cohort 1: 200 mg QD, Cycle 16, Day 1, n=1): 0.0 (—) percent predicted RV
- Change From Baseline in Percent Predicted Residual Volume (RV), Mean (Standard Deviation) (Cohort 1: 200 mg QD, Cycle 17, Day 1, n=5): 13.6 (27.8) percent predicted RV
- Change From Baseline in Percent Predicted Residual Volume (RV), Mean (Standard Deviation) (Cohort 1: 200 mg QD, Cycle 19, Day 1, n=5): 5.4 (28.7) percent predicted RV
- Change From Baseline in Percent Predicted Residual Volume (RV), Mean (Standard Deviation) (Cohort 1: 200 mg QD, Cycle 21, Day 1, n=3): 8.3 (10.0) percent predicted RV
- Change From Baseline in Percent Predicted Residual Volume (RV), Mean (Standard Deviation) (Cohort 1: 200 mg QD, Cycle 23, Day 1, n=3): 0.3 (5.1) percent predicted RV
- Change From Baseline in Percent Predicted Residual Volume (RV), Mean (Standard Deviation) (Cohort 1: 200 mg QD, Cycle 24, Day 1, n=1): −4.0 (—) percent predicted RV
- Change From Baseline in Percent Predicted Residual Volume (RV), Mean (Standard Deviation) (Cohort 1: 200 mg QD, Cycle 25, Day 1, n=2): 1.0 (9.9) percent predicted RV
- Change From Baseline in Percent Predicted Residual Volume (RV), Mean (Standard Deviation) (Cohort 1: 200 mg QD, Cycle 26, Day 1, n=1): −3.0 (—) percent predicted RV
- Change From Baseline in Percent Predicted Residual Volume (RV), Mean (Standard Deviation) (Cohort 1: 200 mg QD, Cycle 27, Day 1, n=2): 19.5 (41.7) percent predicted RV
- Change From Baseline in Percent Predicted Residual Volume (RV), Mean (Standard Deviation) (Cohort 1: 200 mg QD, Cycle 29, Day 1, n=2): −13.0 (42.4) percent predicted RV
- Change From Baseline in Percent Predicted Residual Volume (RV), Mean (Standard Deviation) (Cohort 1: 200 mg QD, Cycle 37, Day 1, n=1): −54.0 (—) percent predicted RV
- Change From Baseline in Percent Predicted Residual Volume (RV), Mean (Standard Deviation) (Cohort 1: 200 mg QD, Cycle 38, Day 1, n=1): 8.0 (—) percent predicted RV
- Change From Baseline in Percent Predicted Residual Volume (RV), Mean (Standard Deviation) (Cohort 1: 200 mg QD, Cycle 39, Day 1, n=2): 43.0 (89.1) percent predicted RV
- Change From Baseline in Percent Predicted Residual Volume (RV), Mean (Standard Deviation) (Cohort 1: 200 mg QD, Cycle 40, Day 1, n=1): −1.0 (—) percent predicted RV
- Change From Baseline in Percent Predicted Residual Volume (RV), Mean (Standard Deviation) (Cohort 1: 200 mg QD, Cycle 41, Day 1, n=1): 80.0 (—) percent predicted RV
- Change From Baseline in Percent Predicted Residual Volume (RV), Mean (Standard Deviation) (Cohort 1: 200 mg QD, Cycle 43, Day 1, n=1): 58.0 (—) percent predicted RV
- Change From Baseline in Percent Predicted Residual Volume (RV), Mean (Standard Deviation) (Cohort 1: 200 mg QD, Cycle 47, Day 1, n=1): 42.0 (—) percent predicted RV
- Change From Baseline in Percent Predicted Residual Volume (RV), Mean (Standard Deviation) (Cohort 1: 200 mg QD, Cycle 48, Day 1, n=1): −50.0 (—) percent predicted RV
- Change From Baseline in Percent Predicted Residual Volume (RV), Mean (Standard Deviation) (Cohort 1: 200 mg QD, Cycle 49, Day 1, n=1): −14.0 (—) percent predicted RV
- Change From Baseline in Percent Predicted Residual Volume (RV), Mean (Standard Deviation) (Cohort 1: 200 mg QD, Cycle 51, Day 1, n=1): 22.0 (—) percent predicted RV
- Change From Baseline in Percent Predicted Residual Volume (RV), Mean (Standard Deviation) (Cohort 1: 200 mg QD, Cycle 52, Day 1, n=1): −4.0 (—) percent predicted RV
- Change From Baseline in Percent Predicted Residual Volume (RV), Mean (Standard Deviation) (Cohort 1: 200 mg QD, Cycle 53, Day 1, n=1): 22.0 (—) percent predicted RV
- Change From Baseline in Percent Predicted Residual Volume (RV), Mean (Standard Deviation) (Cohort 1: 200 mg QD, Cycle 54, Day 1, n=1): 4.0 (—) percent predicted RV
- Change From Baseline in Percent Predicted Residual Volume (RV), Mean (Standard Deviation) (Cohort 1: 200 mg QD, Cycle 55, Day 1, n=1): 53.0 (—) percent predicted RV
- Change From Baseline in Percent Predicted Residual Volume (RV), Mean (Standard Deviation) (Cohort 1: 200 mg QD, Cycle 56, Day 1, n=1): 17.0 (—) percent predicted RV
- Change From Baseline in Percent Predicted Residual Volume (RV), Mean (Standard Deviation) (Cohort 1: 200 mg QD, Cycle 57, Day 1, n=1): 18.0 (—) percent predicted RV
- Change From Baseline in Percent Predicted Residual Volume (RV), Mean (Standard Deviation) (Cohort 1: 200 mg QD, Cycle 58, Day 1, n=1): 4.0 (—) percent predicted RV
- Change From Baseline in Percent Predicted Residual Volume (RV), Mean (Standard Deviation) (Cohort 1: 200 mg QD, Cycle 60, Day 1, n=1): −20.0 (—) percent predicted RV
- Change From Baseline in Percent Predicted Residual Volume (RV), Mean (Standard Deviation) (Cohort 1: 200 mg QD, Cycle 61, Day 1, n=1): −18.0 (—) percent predicted RV
- Change From Baseline in Percent Predicted Residual Volume (RV), Mean (Standard Deviation) (Cohort 1: 200 mg QD, Cycle 62, Day 1, n=1): −8.0 (—) percent predicted RV
- Change From Baseline in Percent Predicted Residual Volume (RV), Mean (Standard Deviation) (Cohort 1: 200 mg QD, Cycle 63, Day 1, n=1): 6.0 (—) percent predicted RV
- Change From Baseline in Percent Predicted Residual Volume (RV), Mean (Standard Deviation) (Cohort 1: 200 mg QD, Cycle 67, Day 1, n=1): 2.0 (—) percent predicted RV
- Change From Baseline in Percent Predicted Residual Volume (RV), Mean (Standard Deviation) (Cohort 1: 200 mg QD, EOT, n=11): 6.3 (24.3) percent predicted RV
- Change From Baseline in Percent Predicted Residual Volume (RV), Mean (Standard Deviation) (Cohort 2: 200 mg BID, Cycle 3, Day 1, n=12): −4.6 (18.8) percent predicted RV
- Change From Baseline in Percent Predicted Residual Volume (RV), Mean (Standard Deviation) (Cohort 2: 200 mg BID, Cycle 5, Day 1, n=11): −11.5 (26.9) percent predicted RV
- Change From Baseline in Percent Predicted Residual Volume (RV), Mean (Standard Deviation) (Cohort 2: 200 mg BID, Cycle 7, Day 1, n=8): −9.9 (17.1) percent predicted RV
- Change From Baseline in Percent Predicted Residual Volume (RV), Mean (Standard Deviation) (Cohort 2: 200 mg BID, Cycle 8, Day 1, n=1): −28.0 (—) percent predicted RV
- Change From Baseline in Percent Predicted Residual Volume (RV), Mean (Standard Deviation) (Cohort 2: 200 mg BID, Cycle 9, Day 1, n=8): −19.9 (24.3) percent predicted RV
- Change From Baseline in Percent Predicted Residual Volume (RV), Mean (Standard Deviation) (Cohort 2: 200 mg BID, Cycle 10, Day 1, n=2): −47.5 (0.7) percent predicted RV
- Change From Baseline in Percent Predicted Residual Volume (RV), Mean (Standard Deviation) (Cohort 2: 200 mg BID, Cycle 11, Day 1, n=6): −10.5 (28.3) percent predicted RV
- Change From Baseline in Percent Predicted Residual Volume (RV), Mean (Standard Deviation) (Cohort 2: 200 mg BID, Cycle 12, Day 1, n=1): −5.0 (—) percent predicted RV
- Change From Baseline in Percent Predicted Residual Volume (RV), Mean (Standard Deviation) (Cohort 2: 200 mg BID, Cycle 13, Day 1, n=4): −27.0 (35.6) percent predicted RV
- Change From Baseline in Percent Predicted Residual Volume (RV), Mean (Standard Deviation) (Cohort 2: 200 mg BID, Cycle 14, Day 1, n=1): −31.0 (—) percent predicted RV
- Change From Baseline in Percent Predicted Residual Volume (RV), Mean (Standard Deviation) (Cohort 2: 200 mg BID, Cycle 15, Day 1, n=3): −0.7 (18.1) percent predicted RV
